We go through four compounds from patent US6420372B1, “Febrifugine, isofebrifugine and method for producing the same” (Japan Science and Technology Corporation, priority 1999, dated 2002).

Assay [1] has as its system mouse breast cancer FM3A cells (F28-7 strain). Description: Mouse FM3A cell growth inhibition test. The assay is classed as cell-based. Conditions: read-out: FM3A EC50. The protocol:
An F28-7 strain, a wild cell strain derived from mouse breast cancer FM3A cells was employed. A medium was prepared by supplementing an ES medium with 2% inactivated fetal calf serum, and incubated at 37° C. under 5% CO2. Under these conditions, the doubling time of the FM3A cell was about 12 hours.
Following preincubation, the cells in logarithmic growth phase were diluted with the medium to 5×10^4 cells/ml. The sample used was one prepared for the anti-malarial activity test of the malaria protozoan. 5 to 10 μl of the samples were added to a 24-well cultivation plate (final concentration after addition of medium was 1×10^−4 to 1×10^−6). The compounds were tested in duplicates or triplicates, and wells containing 10 μl of sterilized water, DMF or DMSO were also prepared as a control. Subsequently, 990 to 995 μl of the cultured cell suspension previously prepared were added by gentle pipetting, and uniformly suspended in the medium. After incubating for 48 hours, the number of cells in each well was counted using SELF CONTROLLER (CC-108, Toa Medical Electrics) and the reproductive rate was calculated by using the following equation.
Reproductive rate (%)={([C]−[A])/([B]−[A])}×100
A: initial number of cells
B: number of control cell after 48 hours
C: number of cells after 48 hours from sample addition
The cell growth inhibition activity was calculated from the number of cells in the well containing the sample and the number of cells in the control. From the results thus obtained, the cytotoxicity of each sample was evaluated and represented as the cell growth inhibition concentration (EC50). The EC50 value is the concentration (expressed as molar concentration) of a sample necessary to inhibit the reproductive rate of the control by 50%, wherein the reproductive rate or the rate of malarial protozoan infection for the control in which samples are not added to the medium of malarial protozoan or FM3A cell, is regarded as 100%.

Assay [2] has as its system P. falciparum FCR-3 strain (ATCC 30932). Description: Screening of malarial protozoan growth inhibition (culture assay). The assay is classed as cell-based. The conditions noted are these: for EC50: Plasmodium falciparum, Erythrocyte, read-out: P. falciparum EC50; for Ratio of Selective Toxicity for Malarial Protozoan <chemotherapeutic coefficient>: [EC50 for mouse FM3A cell]/[EC50 for tropical fever malarial protozoan]; for malarial protozoan growth inhibiting activity (in words): summary of Table 1. The protocol: In this experiment, P. falciparum FCR-3 strain (ATCC 30932) was employed as the tropical fever malarial protozoan. In order to verify the effect of the commercially available anti-malarial agent chloroquin on resistant strains, a chloroquin resistant malarial protozoan of the P. falciparum K1 strain was employed. The medium used in this experiment was a filter-sterilized RPMI1640 medium which was adjusted to pH 7.4 and supplemented with 10% human serum. The malarial protozoan was cultured under 5% O2, 4% CO2 and […] at 36.5° C. The hematocrit level (% volume of erythrocyte in erythrocyte suspension) was adjusted to 5% for use. The initial infection rate with the tropical fever malarial protozoan at the beginning of the cultivation was 0.1%. The cultivation was performed using a 24-well cultivation plate, replacing the culture medium everyday, and subcultured at an infection rate of 4%. The infection rate was obtained by making a thin layer smear preparation, which was subjected to Giemsa staining or Diff-Qick staining, and observed microscopically (immersed in oil, magnified to ×1000) after which the malarial protozoan infection rate was determined using the following equation.
Malarial protozoan infection rate=[(number of infected erythrocyte)/(total number of erythrocyte)]×100 The cultured malarial protozoan-infected erythrocyte was collected by centrifugation, and washed with a serum-supplemented medium, after which a non-infected erythrocyte was added to adjust the initial infection rate to 0.3%. At this time, the hematocrit rate was 3%. The sample used in the test was obtained by dissolving in sterilized water, dimethylformamide (DMF), or dimethylsulfoxide (DMSO) to create samples of desired concentration.
5 to 10 μl of the sample were added to a 24-well cultivation plate. The samples were tested in duplicates or triplicates. As a control, 10 μl/well of sterilized water, DMF or DMSO was employed.
Subsequently, to the above medium, 990 to 995 μl of the tropical fever malarial protozoan culture medium previously prepared were added by gentle pipetting to create a uniform suspension. The culture plate was incubated for 72 hours in a CO2—O2—N2 (5%, 5%, 90%) incubator, after which thin layer smear preparations of each well was made, stained, and observed microscopically, to determine the infection rate together with the infection rate for the control.
From the malarial protozoan infection rate obtained by the method described above, the reproductive rate was calculated, whereby obtaining the 50% growth inhibition concentration (EC50) for malarial protozoan.
Reproductive rate={([b]−[a])/([c]−[a])}×100 a: initial infection rate b: infection rate with sample added c: infection rate without sample (Control)

Where two headings read alike, the source gives them in different places.

For the compound `O=C(C[C@H]1NCCC[C@@H]1O)Cn1cnc2ccccc2c1=O` [A, (2′R, 3′S)-febrifugine], the EC50 in assay [1] (48 h) amounted to 0.8 µM. For the same compound, in assay [2] (72 h), the EC50 amounted to 0.3 nM. In assay [2], the “Ratio of Selective Toxicity for Malarial Protozoan <chemotherapeutic coefficient>” value (“Ratio of Selective Toxicity” for short) was 2667 and the “malarial protozoan growth inhibiting activity (in words)” value is listed as “selective malarial protozoan growth inhibiting activity”.

`O=c1c2ccccc2ncn1CC1(O)C[C@@H]2NCCC[C@@H]2O1` (stereo partly drawn) [B, (2′S, 3′S)-isofebrifugine]: the concentration giving a half-maximal response (EC50) in assay [1] (cell growth inhibition concentration (cytotoxicity), 48 hours incubation, cell count) worked out at 0.22 µM. The EC50 in assay [2] (50% growth inhibition concentration, infected erythrocytes, 72 hours incubation, infection rate by stained smear) is 0.076 nM. Moreover, in assay [2], the “Ratio of Selective Toxicity” value was 2895 and the “malarial protozoan growth inhibiting activity (in words)” value is on record as “selective malarial protozoan growth inhibiting activity”.

Consider `O=C(C[C@@H]1NCCC[C@H]1O)Cn1cnc2ccccc2c1=O` [Formula A0, reference compound], for which the EC50 in assay [1] (48 h) was 20 µM; in assay [2] (72 h), 190 nM. Further, in assay [2], the “Ratio of Selective Toxicity” value is 105.

`O=c1c2ccccc2ncn1CC1(O)C[C@@H]2NCCC[C@H]2O1` (some centres unmarked) [Formula B0, reference compound]: the EC50 is 22 µM in assay [1] (48 h) and 200 nM in assay [2] (72 h). In addition, the “Ratio of Selective Toxicity” value in assay [2] came out at 110.

A word on the EC50: it is the concentration giving half of the maximal effect.
